The source of these data is patent publication US7825146B2, “Sulfonamide derivative having isoxazole ring” (Shionogi & Co., Ltd., priority 2003, dated 2010).

What is called IC50 is the concentration that gives 50% inhibition. The low end stands for inhibition by little substance, the high end for a need for much substance.

Common to all, as to type: biochemical
One test has as its target T1, MMP-13 (Homo sapiens, UniProt P45452).
T1 construct: catalytic domain (^104Tyr˜^267Gly) was amplified with RT-PCR; His-tag; enterokinase digestion-site; made in house
As to the kind of experiment: Assay for inhibitory activities on MMPs (fluorogenic MOCAc peptide substrate): MMP-13. The conditions noted are these: Table 40. Here is the method:
(§1) In regard to MMP-13, mRNA was prepared from carcinoma cell SW1353 derived from human cartilage stimulate by IL-1, TNF and catalytic domain (^104Tyr˜^267Gly) was amplified with RT-PCR. This was cloned in Escherichia. coli expression vector pTrc99AHE inserted with His-tag sequence and enterokinase digestion-site, induced and expressed by IPTG (Isopropyl-β-D-thiogalactopyranoside) and expressed in a insoluble fraction. Isolation of MMP-13 from an insoluble fraction was carried out by dissolving in modifier (6M urea) by a usual method and purification with metal chelate chromatography (Ni Chelateing Sepharose). And then removing modifier (6M urea) with dialyze and refolding of the enzyme spontaneously gave activated MMP-13.
(§2) The enzymatic activity on MMPs was analyzed by the method described in “C. Graham Knight, Frances Willenbrock and Gillian Murphy: A novel coumarin-labelled peptide for sensitive continuous assays of the matrix metalloproteinases: FEBS LETT., 296, (1992), 263-266”. The substrate: MOCAc-Pro-Leu-Gly-Leu-A2Pr(DNP)-Ala-Arg-NH2 was purchased from Peptide Institute, Inc., Osaka, Japan. The measurement of the inhibitory activities (IC50) was carried out by the following four methods; • (A) Reaction with substrate, enzyme (MMPs) and inhibitor • (B) Reaction with substrate and inhibitor, without enzyme • (C) Reaction with substrate and enzyme (MMPs), without inhibitor • (D) Reaction with substrate only IC50 values were calculated by using the following formula and each fluorescence values of above four methods (A to D).
(§3) The value of inhibitory activity against MMP-2, MMP-8, MMP-9, MMP-12, and MMP-13 measured by above mentioned methods are shown in Table 36, 37, 38, 39, and 40 respectively.

A further test has as its target T2, MMP-12 (Homo sapiens, UniProt P39900).
T2 construct: In regard to MMP-12, catalytic domain(^100Phe˜^263Gly) was amplified with RT-PCR; His-tag; enterokinase digestion-site; made in house
The test can be described thus: Assay for inhibitory activities on MMPs (fluorogenic MOCAc peptide substrate): MMP-12. The conditions noted are these: catalytic domain 100Phe-263Gly. Here is the method:
as §1, with “MMP-12,” for “MMP-13, mRNA was prepared from carcinoma cell SW1353 derived from human cartilage stimulate by IL-1, TNF and”, “domain(^100Phe˜^263Gly)” for “domain (^104Tyr˜^267Gly)”, “RT-PCR from Human Placenta Total RNA.” for “RT-PCR.”, “MMP-12” for “MMP-13”, “dialysis” for “dialyze”, “MMP-12.” for “MMP-13.”
as §2, §3

For the next test, the target named is T3, MMP-8 (Homo sapiens, UniProt P22894).
T3 construct: In regard to MMP-8, catalytic domain (^99Phe˜^262Gly) was amplified with PCR; His-tag; enterokinase digestion-site; made in house
The test can be described thus: Assay for inhibitory activities on MMPs (fluorogenic MOCAc peptide substrate): MMP-8. The settings on record: catalytic domain 99Phe-262Gly.
Description: In regard to MMP-8, catalytic domain (^99Phe˜^262Gly) was amplified with PCR using commercial available Human Bone Marrow cDNA. This was cloned in Escherichia. coli expression vector pTrc99AHE inserted with His-tag sequence and enterokinase digestion-site, induced and expressed by IPTG (Isdpropyl-β-D-thiogalactopyranoside) and expressed in a insoluble fraction (Thau F. Ho, M. Walid Qoronfleh, Robert C. Wahl, Trica A. Pulvino, Karen J. Vavra, Joe Falvo, Tracey M. Banks, Patricia G. Brake and Richard B. Ciccarelli: Gene expression, purification and characterization of recombinant human neutrophil collagenase. Gene 146, (1994) 297-301, Prepared by the a improved method of this material). Isolation of MMP-8 from an insoluble fraction was carried out by dissolving in modifier (6M urea) by a usual method and purification with metal chelate chromatography. And then removing modifier (6M urea) with dialysis and refolding of the enzyme spontaneously gave activated MMP-8.
as §2, §3

T2 sequence (P39900 100-263): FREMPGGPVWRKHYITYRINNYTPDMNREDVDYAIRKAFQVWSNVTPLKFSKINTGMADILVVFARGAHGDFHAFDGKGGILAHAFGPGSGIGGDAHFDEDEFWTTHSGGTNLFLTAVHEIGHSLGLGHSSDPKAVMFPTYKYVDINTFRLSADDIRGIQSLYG
T3 sequence (P22894 99-262): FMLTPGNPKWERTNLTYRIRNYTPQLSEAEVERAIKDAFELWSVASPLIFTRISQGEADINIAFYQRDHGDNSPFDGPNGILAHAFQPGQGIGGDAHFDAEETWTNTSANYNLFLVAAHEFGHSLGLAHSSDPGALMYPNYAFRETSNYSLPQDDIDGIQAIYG

On to `CC(C)c1ccc(-c2cc(-c3ccc(S(=O)(=O)N[C@H](C(=O)O)C(C)C)cc3)no2)cc1` [Example C-16], for which the figures for the IC50 at MMP-13 and against MMP-12 were 0.000403 µM and 0.000287 µM, respectively. Turning to `CC(C)[C@@H](NS(=O)(=O)c1ccc(-c2cc(-c3ccc4c(c3)CCO4)on2)cc1)C(=O)O` [Example C-47], the IC50 stood at 0.00107 µM against MMP-8 and 0.000264 µM at MMP-12. For `CC(C)[C@H](NS(=O)(=O)c1ccc(-c2cc(-c3ccc(Cl)s3)on2)cc1)C(=O)O` [Example C-34] the same measures were 0.00177 µM and 0.000866 µM. Turning to `CC(C)[C@H](NS(=O)(=O)c1ccc(-c2cc(-c3ccc4c(c3)OCO4)on2)cc1)C(=O)O` [Example C-45], the IC50 on MMP-8 is 0.00366 µM; against MMP-12, 0.000641 µM. Take `CC(C)[C@@H](NS(=O)(=O)c1ccc(-c2cc(-c3ccc(C(F)(F)F)cc3)on2)cc1)C(=O)O` [Example C-27]: the IC50 is 0.000758 µM against MMP-13 and 0.000316 µM against MMP-12.

Turning to `CCc1ccc(-c2cc(-c3ccc(S(=O)(=O)N[C@H](CC(=O)O)C(=O)O)cc3)no2)cc1` [Example C-113], at MMP-13, half-maximal inhibition (IC50) required 0.000733 µM. On to `CC(C)[C@H](NS(=O)(=O)c1ccc(-c2cc(-c3ccc(Cl)c(F)c3)on2)cc1)C(=O)O` [Example C-37], for which the IC50 against MMP-8 came to 0.00433 µM; at MMP-12, 0.000172 µM. In the case of `CSc1ccc(-c2cc(-c3ccc(S(=O)(=O)N[C@H](C(=O)O)C(C)C)cc3)no2)cc1` [Example C-11], the IC50 came to 0.000739 µM against MMP-13 and 0.000289 µM against MMP-12. With `CC(C)C[C@H](NS(=O)(=O)c1ccc(-c2cc(-c3ccc(Cl)c(Cl)c3)on2)cc1)C(=O)O` [Example C-88], the values for the IC50 against MMP-8 and at MMP-12 were 0.00437 µM and 0.000184 µM, respectively.

Take `CCC(C)[C@H](NS(=O)(=O)c1ccc(-c2cc(-c3ccc(Cl)c(Cl)c3)on2)cc1)C(=O)O` (some centres unmarked) [Example C-104]: the IC50 is 0.00489 µM on MMP-8 and 0.000281 µM on MMP-12. For `CC(C)C[C@H](NS(=O)(=O)c1ccc(-c2cc(-c3ccc4c(c3)OCO4)on2)cc1)C(=O)O` [Example C-86] the same measures were 0.00478 µM and 0.000545 µM. The corresponding values for `CCC(C)[C@H](NS(=O)(=O)c1ccc(-c2cc(-c3ccc(C)s3)on2)cc1)C(=O)O` (some centres unmarked) [Example C-98] are 0.00103 µM and 0.000629 µM. The corresponding values for `COc1ccc(-c2cc(-c3ccc(S(=O)(=O)N[C@H](C(=O)O)C(C)C)cc3)no2)cc1` [Example C-19] are 0.00397 µM and 0.000447 µM. Turning to `CCc1ccc(-c2cc(-c3ccc(S(=O)(=O)N[C@H](C(=O)O)C(C)CC)cc3)no2)cc1` (some centres unmarked) [Example C-95], the IC50 against MMP-13 was 0.000702 µM; at MMP-12, 0.000172 µM.

In the case of `CC(C)[C@H](NS(=O)(=O)c1ccc(-c2cc(-c3ccc4c(c3)CCO4)on2)cc1)C(=O)O` [Example C-48], the IC50 on MMP-8 amounted to 0.000892 µM; against MMP-12, 0.0002 µM. The corresponding values for `CC(C)[C@@H](NS(=O)(=O)c1ccc(-c2cc(-c3ccc4c(c3)OCO4)on2)cc1)C(=O)O` [Example C-44] are 0.00359 µM and 0.000649 µM. The corresponding values for `CC(C)C[C@H](NS(=O)(=O)c1ccc(-c2cc(-c3ccc(Cl)s3)on2)cc1)C(=O)O` [Example C-79] are 0.00286 µM and 0.0008 µM. With `CC(C)C[C@H](NS(=O)(=O)c1ccc(-c2cc(-c3ccc(C(C)C)cc3)on2)cc1)C(=O)O` [Example C-60], the IC50 on MMP-13 stood at 0.000919 µM; on MMP-12, 0.000335 µM.

Turning to `CCc1ccc(-c2cc(-c3ccc(S(=O)(=O)N[C@H](C(=O)O)C(C)CC)cc3)no2)s1` (some centres unmarked) [Example C-99], the IC50 on MMP-13 was found to be 0.000971 µM; against MMP-12 it was 0.000649 µM.

As to `CC(C)[C@H](NS(=O)(=O)c1ccc(-c2cc(-c3ccc(OC(F)(F)F)cc3)on2)cc1)C(=O)O` [Example C-26], the IC50 was determined as 0.000884 µM against MMP-13 and 0.000148 µM against MMP-12. `CC(C)C[C@@H](NS(=O)(=O)c1ccc(-c2cc(-c3ccc(C(C)C)cc3)on2)cc1)C(=O)O` [Example C-59] came in with an IC50 against MMP-13 of 0.000889 µM. As to `COc1ccc(-c2cc(-c3ccc(S(=O)(=O)N[C@@H](CC(C)C)C(=O)O)cc3)on2)cc1F` [Example A-79], the figures for the IC50 on MMP-8 and against MMP-12 were 0.00111 µM and 0.000622 µM, respectively. For `CCCc1ccc(-c2cc(-c3ccc(S(=O)(=O)N[C@H](CC(=O)O)C(=O)O)cc3)no2)cc1` [Example C-114], the IC50 came to 0.000223 µM against MMP-13 and 0.000578 µM against MMP-12. Take `Cc1ccc(-c2cc(-c3ccc(S(=O)(=O)N[C@H](C(=O)O)C(C)C)cc3)no2)s1` [Example C-30]: the values for the IC50 against MMP-8 and against MMP-12 were 0.00124 µM and 0.000758 µM, respectively. On to `CC(C)c1ccc(-c2cc(-c3ccc(S(=O)(=O)N[C@H](Cc4c[nH]c5ccccc45)C(=O)O)cc3)on2)cc1` [Example A-111], for which the midpoint of inhibition at MMP-13, the IC50, lay at 0.000465 µM. That is a sub-nanomolar value. Still for that read-out and setting: the value for `CSCC[C@@H](NS(=O)(=O)c1ccc(-c2cc(-c3ccc(C(C)C)cc3)no2)cc1)C(=O)O` [Example A-107] was 0.000658 µM.

For the compound `CCC(C)[C@H](NS(=O)(=O)c1ccc(-c2cc(-c3ccc(OC(F)(F)F)cc3)on2)cc1)C(=O)O` (some centres unmarked) [Example C-102], the results for the IC50 against MMP-13 and against MMP-12 were 0.000837 µM and 0.00014 µM, respectively.

At MMP-8, `Cc1ccc(-c2cc(-c3ccc(S(=O)(=O)N[C@H](CC(C)C)C(=O)O)cc3)no2)s1` [Example C-74] showed an IC50 of 0.00416 µM. In other words, the single-digit nanomolar range. `CC(C)[C@H](NS(=O)(=O)c1ccc(-c2cc(-c3ccc(Cl)c(Cl)c3)on2)cc1)C(=O)O` [Example C-41]: the IC50 was found to be 0.00379 µM against MMP-8 and 0.000294 µM against MMP-12. With `CCC(C)[C@H](NS(=O)(=O)c1ccc(-c2cc(-c3ccc(Cl)s3)on2)cc1)C(=O)O` (some centres unmarked) [Example C-100], the IC50 against MMP-8 came out at 0.00111 µM. `O=C(O)C[C@@H](NS(=O)(=O)c1ccc(-c2cc(-c3ccc(C(F)(F)F)cc3)on2)cc1)C(=O)O` [Example C-115] had an IC50 against MMP-13 of 0.000643 µM.

Take `CC(C)C[C@H](NS(=O)(=O)c1ccc(-c2cc(-c3ccc4c(c3)CCO4)on2)cc1)C(=O)O` [Example C-91]: the IC50 against MMP-8 worked out at 0.00108 µM; against MMP-12 it was 0.000184 µM. With `CCc1ccc(-c2cc(-c3ccc(S(=O)(=O)N[C@@H](C(=O)O)C(C)C)cc3)on2)cc1` [Example A-26], the IC50 at MMP-13 was 0.000943 µM. In the case of `CCC(C)[C@H](NS(=O)(=O)c1ccc(-c2cc(-c3ccc(OC)cc3)on2)cc1)C(=O)O` (some centres unmarked) [Example C-96], the IC50 against MMP-8 is 0.00229 µM; on MMP-12, 0.000228 µM.

In turn, `Cc1ccc(-c2cc(-c3ccc(S(=O)(=O)N[C@@H](C(=O)O)C(C)(C)C)cc3)no2)s1` [Example C-110] registered an IC50 on MMP-8 of 0.00252 µM.

As to `Cc1ccc(-c2cc(-c3ccc(S(=O)(=O)N[C@@H](CC(C)C)C(=O)O)cc3)no2)s1` [Example C-75], the concentration for half-maximal inhibition (IC50) at MMP-8 came to 0.00198 µM; on MMP-12, 0.000677 µM. The corresponding values for `COc1ccc(-c2cc(-c3ccc(S(=O)(=O)N[C@@H](C(=O)O)C(C)C)cc3)on2)cc1Cl` [Example A-56] are 0.00397 µM and 0.000898 µM.

Take `CSCC[C@@H](NS(=O)(=O)c1ccc(-c2cc(-c3ccc(OC(F)(F)F)cc3)no2)cc1)C(=O)O` [Example A-108]: the values for the IC50 against MMP-13 and at MMP-12 were 0.000635 µM and 0.000764 µM, respectively. On MMP-8, `Cc1ccc(-c2cc(-c3ccc(S(=O)(=O)N[C@H](CC(=O)O)C(=O)O)cc3)no2)s1` [Example C-116] returned an IC50 of 0.0023 µM. Same read-out and setting: the value for `CC(C)C[C@@H](NS(=O)(=O)c1ccc(-c2cc(-c3ccc(Cl)s3)on2)cc1)C(=O)O` [Example C-78] was 0.00463 µM. As for `CCc1ccc(-c2cc(-c3ccc(S(=O)(=O)N[C@H](C(=O)O)C(C)C)cc3)no2)cc1` [Example C-13], the IC50 was 0.000757 µM against MMP-13 and 0.000201 µM against MMP-12.
